Data set [1] relates to antigen presentation pathway (APP). Kind of data set: Nanostring differential gene expression analyses of 4T1, EMT6 and S91 tumors. It counts as in vivo, mouse. To be noted: 4T1, EMT6, S91 tumors. The source says:
The objective of this study was to determine the differential gene expression (DGE) patterns of 4T1, EMT6, and S91 tumors treated with EX-11+immune checkpoint inhibitor (ICI), EX-11 alone, ICI alone, or vehicle control. For the purpose of this study, ICI=anti-PD-1 or anti-PD-L1, as indicated.
For NanoString assays, tumors from three syngeneic models of cancer were used:
RNA was isolated from the frozen tumors of ≥3 mice per group using the Direct-Zol RNA Miniprep (Zymo Research). The treatment arms and number of mice/tumors used for downstream applications is outlined in Table 17 (R=Responder, NS=Non-responder).
Equal concentrations of RNA for each tumor within each group were pooled. Two-hundred ng of RNA per group was used for downstream applications. Three separate NanoString nCounter panels were used per protocol: 1) Fibrosis, 2) PanCancer Pathways, 3) Immunology. RCC raw data files were uploaded into nCounter 4.0 software where counts were normalized to housekeeping genes. Gene lists in each panel were combined into a single spreadsheet for downstream analyses. For genes found in […], mean count values were used. RStudio software was used to generate heat maps of DGE signatures within each study for each group. Ingenuity Pathway Analysis (IPA) was used to identify the dysregulated signaling pathways within each study for each group.

Data set [2] relates to 4T1-luc tumors. Kind of data set: 4T1 syngeneic TNBC model. It counts as in vivo, mouse. As to the method:
Tumor measurements were performed via digital calipers.
The vehicle for anti-PD-1 inhibitor was PBS.
The study dosing phase was 21 days. At the end of the study, animals were injected with luciferin, then sacrificed. Ex vivo imaging of the lung and liver tissue was performed to assess metastasis.

Data set [3] deals with Cloudman S91 melanoma. The data set can be described thus: Cloudman S91 melanoma syngeneic study. To be noted: single agents.
Protocol: The objective of this study was to evaluate preclinically the in vivo therapeutic efficacy of EX-11+/−anti-PD-1 therapy for the treatment of subcutaneous Cloudman S91 melanoma model in DBA/2 mice.
Female, DBA/2 mice (aged 7-9 weeks) were inoculated subcutaneously in the right flank region with Cloudman S91 melanoma cells (2×10^5) in 0.1 ml of PBS. Once the mean tumor size reached approximately 100 mm^3 (day 19), 60 mice were randomized to 6 treatment arms (10 mice per arm).
The anti-PD-1 inhibitor used in this study was a product of Crownbio/OEM (Cat #: CVP033, Lot #: 0920L765). The vehicle for the anti-BD-1 inhibitor was PBS. The drug was injected intraperitoneally (i.p.), bi-weekly (BIW) for 3 weeks. The vehicle for EX-11 was 1000 tween-20, 900% ddH2O. The vehicle used for EX-11 was also used for the “Vehicle” arm of the study. EX-11 and the vehicle were delivered via oral gavage (p.o.), bi-daily (BID) for 21 days.
Body weights and tumor volumes were measured 3 times per week. Tumor volumes were measured in two dimensions using a caliper, and the volume was expressed in mm^3 using the formula: V=(L×W×W)/2, where V is tumor volume, L is tumor length (the longest tumor dimension) and W is tumor width (the longest tumor dimension perpendicular to L).
The study was terminated 50 days post-inoculation. […]
The subject of data set [4] is COV434 cells (wild-type FOXL2). Kind of data set: FOXL2 cell viability assay (Cell Titer Glo), COV434. Type of data set: cell-based. To be noted: Homo sapiens, 72 h, 3 days. As to the method: EX-11 was submitted to a cell viability assay in KGN and COV434 cell lines. KGN cells are derived from FOXL2^C134W AGCT of a person with a recurrent metastatic GCT. COV434 cells are derived from FOXL2WT JGCT of a person with a recurrent metastatic GCT. The cells were seeded in triplicate in 96 well culture plates and treated with nine, 3-fold dilutions of EX-11 or DMSO for 6 days (KGN) or 3 days (Cov434), which represented 3 cell doublings, respectively. Viability was assessed by Cell Titer Glo (Promega).
For orientation: ATP-based viability assays read luminescence as a measure of living cells.

For data set [5], the system named is pSmad2 in KGN cells. Kind of data set: pSmad2 Luminex assay in KGN cell line. Type of data set: cell-based. To be noted: 2 hours, read-out: pSmad2 pathway inhibition. As to the method: KGN cells were incubated with three 10-fold dilutions of EX-11 or DMSO for 2 hours. Cells were harvested and lysed, and protein concentration was quantified by BCA. 10 μg of total protein was added to the assay plate provided in the Milliplex TGFβ 6-plex kit with GAPDH MapMate beads, and the manufacturer's protocol was followed. Data was collected on the MagPix Xmap (Luminex).

The test system of data set [6] is HLA class I expression in KGN cells. Kind of data set: HLA expression in KGN cell line (flow cytometry). Type of data set: cell-based, human. To be noted: 72 hours. On the procedure:
KGN cells were treated with 30 nM EX-11, 300 nM EX-11 or DMSO in the absence or presence of 1 ng/mL TGFβ for 72 hours. Cells were then washed, collected and incubated in the dark at 4° C. for 1 hour with a pan HLA class I antibody conjugated to PE (BD Pharmingen cat #560168). The cells were washed and analyzed by flow cytometry on an Attune N×T.
(In general: Flow cytometry measures light scatter and fluorescence of single cells or particles in a stream.)

How the values of data set [7] were obtained: Female, athymic nude mice (aged 6-8 weeks) were randomized to one of 12 study arms (n=3 per arm) (Table 16) and weighed prior to dosing. Mice were dosed via oral gavage either once daily (QD), or bi-daily (BID) for five days. […] The vehicle for PF-06952229 (PF) was 10% DMSO, 40% PEG300, 5% tween-80, 45% saline. For the vehicle alone group in this study, the PF-06952229 vehicle was used. At the end of each day for 10 days, mice were weighed, and symptoms of toxicity (if present) were recorded. A qualitative determination of overall toxicity was made based on the number and severity of symptoms for each cohort. The safety margin was determined at the end of day 10 based on the following equation: (maximum tolerated dose)/(minimum effective dose).

Data set [8] relates to cancer associated fibroblast (CAF) genes in human primary dermal fibroblasts. Kind of data set: CAF gene suppression assay (qPCR). It counts as cell-based. As to the method: Human primary dermal fibroblasts (ATCC) were divided into four groups: DMSO-TGFβ, DMSO+TGFβ (1 ng/mL), 30 nM EX-11+TGFβ (1 ng/mL), and 300 nM EX-11+TGFβ (1 ng/mL). Cells were treated for 24 hours, then mRNA was extracted, quantified, and reverse transcribed. qPCR was run for the following cancer associated fibroblast (CAF) genes: ACTA2, FAP, ITGB1, CD9, TAGLN, ANTXR1, SOC1, Lamp5, Col1A2, and TGFβ1, using the TaqMan system in a Quant Studio.
A general note: Real-time PCR tracks product formation cycle by cycle.

Structures are written as SMILES.

The term IC50 denotes the point on the concentration scale where inhibition reaches its midpoint. A higher IC50 goes with weaker potency in that assay. As usually defined, the inhibition is the percentage by which the read-out fell short of the control. Consider `Cc1cccc2c(Nc3ccnc(Nc4cccc(N5CCOCC5)c4)n3)cnnc12` [EX-11, N4-(8-methylcinnolin-4-yl)-N2-(3-morpholinophenyl)pyrimidine-2,4-diamine], for which the “antigen presentation pathway (APP) in tumors” value in data set [1] was “upregulates the APP in tumors”. For the same compound, in data set [2] (EX-11 at 75 mg/kg PO BID x 21 days), the “tumor growth inhibition (TGI) compared to vehicle” value is “did not result in significant TGI”. Besides, the “tumor growth inhibition (TGI) compared to vehicle” value in data set [2] (EX-11 at 150 mg/kg PO BID x 21 days) was found to be 38%. Also, the “ex vivo luminescence of liver (metastasis) compared to vehicle” value in data set [2] (EX-11 at 150 mg/kg where given) was “stronger reduction in luminescence”. The “survival compared with the vehicle control” value in data set [3] is on record as “did not exhibit an increase in survival”. The same compound yielded an IC50 in data set [4] above 10 µM. Also, the inhibition at 0.01 µM in data set [5] (Homo sapiens, 10 nM) worked out at 17%. The inhibition at 0.1 µM in data set [5] (Homo sapiens, 100 nM) is 74%. In addition, in data set [5] (Homo sapiens, 1,000 nM), the inhibition at 1 µM came to 97%. In data set [6] (30 nM, 300 nM + 1 ng/mL TGFβ), the “HLA class I expression repressed by TGFβ stimulation” value was “reversed”. Also, the “increase of HLA class I expression” value in data set [6] (absence of TGFβ) was “up to 2 fold”. Also, in data set [7] (BID, based on prior studies with EX-11), the minimum effective dose is listed as 150 mg/kg. Besides, the “safety margin (maximum tolerated dose)/(minimum effective dose)” value in data set [7] (female, athymic nude, mouse, in vivo, 10 days) is reported as at least 6.7 fold. Besides, in data set [8] (300 nM + TGFβ 1 ng/mL), the “TAGLN, Lamp5 and TGFβ1 expression” value is reported as “returned to baseline”; the “decrease of FAP, SDC1 and Col1A2 expression from baseline” value is listed as 20-30%. Besides, the “TGFβ-induced upregulation of CAF gene expression” value in data set [8] (30 and 300 nM + TGFβ 1 ng/mL, 24 hours, all genes except CD9) is reported as “dose dependently reversed”.
